{"source": "patent US11951210B2", "about": "“Methods for making giant vesicles and their use” (THE JOHNS HOPKINS UNIVERSITY, priority 2017, dated 2024)", "target": "FKBP (FK506 binding protein) and FRB (FKBP-rapamycin binding) protein (Homo sapiens, UniProt P42345+P62942)", "sequence (P62942 whole entry)": "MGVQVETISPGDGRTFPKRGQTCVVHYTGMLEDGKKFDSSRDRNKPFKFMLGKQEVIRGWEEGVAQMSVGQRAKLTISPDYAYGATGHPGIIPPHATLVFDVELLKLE", "sequence (P42345 2012-2144 limits assumed)": "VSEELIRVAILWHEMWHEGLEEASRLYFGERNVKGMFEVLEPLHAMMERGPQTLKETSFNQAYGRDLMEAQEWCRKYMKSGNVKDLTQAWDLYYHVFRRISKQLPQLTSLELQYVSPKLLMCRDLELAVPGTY", "assay": "Chemically inducible dimerization (FKBP/FRB) protein translocation in GUVs on external rapamycin", "type": "biochemical", "details": "rapamycin added outside the vesicles", "from_the_text": "3A) Schematic of the GUV containing fluorescently-labeled FK506 binding protein (FKBP) and FKBP-rapamycin binding (FRB) proteins. In this embodiment, FKBP peptide is fused to the positively charged myristoylated alanine-rich protein kinase c substrate (MARCKS) domain and binds to the negatively charged phosphatidylserine lipids present at the inner leaflet. The FKBP binding partner, FRB, is luminal. […] The normalized intensity profiles are the intensity traces of the dashed line in each image.\nThis was achieved by using the chemically inducible dimerization paradigm where FKBP (FK506 binding protein) and FRB (FKBP-rapamycin binding) protein can hetrodimerize in the presence of rapamycin."}
{"smiles": "CO[C@H]1C[C@@H]2CC[C@@H](C)[C@@](O)(O2)C(=O)C(=O)N2CCCC[C@H]2C(=O)O[C@H]([C@H](C)C[C@@H]2CC[C@@H](O)[C@H](OC)C2)CC(=O)[C@H](C)/C=C(\\C)[C@@H](O)[C@@H](OC)C(=O)[C@H](C)C[C@H](C)/C=C/C=C/C=C/1C", "note": "[rapamycin]", "values": [{"measurement": "Permeation of the GUV membrane", "value": "permeates the vesicles"}]}
